{"source": "patent US7655434B2", "about": "“Live-cell biosensor polypeptides and methods of use” (The Board of Trustees of the Leland Stanford Junior …, priority 2004, dated 2010)", "key": {"RBL-FMB cells [1]": {"system": "RBL-FMB cells", "experiment": "TIRF based mitosis monitoring system, cells treated with TAXOL", "type": "cell-based, rat", "protocol": "Rat Basophilic Leukemia Cells (RBL) were grown in Dulbecco's modified Eagles Media (DMEM) supplemented with 10% fetal calf serum, 2 mM glutamine, 100 U/ml penicillin, and 100 μg/ml streptomycin (all from Invitrogen, Carlsbad, Calif.). 10 million cells were electroporated (BioRad, Hercules, Calif.) in 600 μl of media with 40 μg of pFMB. These were allowed to recover for 48 hours and cells stably expressing the biosensor were selected for by the addition of 1 μg/ml Geneticin (Invitrogen, Carlsbad, Calif.). 10 days after the addition of Geneticin the cells were sorted based on EYFP fluorescence using a fluorescence activated cell sorter.\nTIRF microscopy was carried out as described previously (Tengholm et al., Science's Stke. 2003 PL4 (2004)). Briefly, an argon-ion laser provided 514-nm laser light for excitation of the biosensor (Lexel Laser, Fremont, Calif.). Exposure of the RBL-FMBs to laser light was controlled by a Uniblitz shutter (Vincent, Rochester, N.Y.). Laser light homogenized with a rotating diffuser (Physical Optics, Torrance, Calif.) was refocused onto a dove prism at an angle yielding total internal reflection (>[…] for a glass-water interface at 37° C.). The excitation light could also be redirected to the back of the microscope and down to the sample via appropriate dichroic mirrors (Chroma Technology, Brattleboro, Vt.) for epi-illumination. Fluorescence was recorded at 530 nm with bandpass interference filters (30-50 nm half-bandwidth; Chroma Technology, Brattleboro, Vt.) mounted in a Sutter Lambda 10-2 filter wheel (Sutter Instrument, Novato, Calif.). Images were captured every 2 minutes with a cooled CCD camera (Micromax; Roper Scientific, Tuscon, Azir.). The shutters, filter wheel, and camera were controlled by Metamorph software (Universal Imaging, Downington, Pa.).\nBoth systems were heated with an ASI 400 Air Stream Incubator (Nevtek, Burnsville, Va.). The cells were perfused with fresh growth media saturated with 10% CO2 that was heated with an inline solution heater (Warner Instruments, Hamden, Conn.).\nMetamorph software (Universal Imaging, Downington Pa.) was used for data image analysis. Fluorescence intensity was recorded over the entire stack of images by drawing regions of interest over each mitotic cell. Background correction was performed by subtracting the intensity of a background region of identical size next to each cell to account for the somewhat uneven background in the field of view over the time of the data collection. Background corrected intensity values were exported to a Microsoft Excel file and plotted. NEB was determined as the time just prior to the dramatic increase in fluorescence intensity. Anaphase onset is defined as the time point immediately preceding the second smaller increase in fluorescence. NER was determined as the point in time when fluorescence intensity starts to decrease back to baseline levels."}, "RBL-FMB cells [2]": {"system": "RBL-FMB cells", "experiment": "Mitotic index by immunofluorescence", "type": "cell-based, rat", "details": "20 hours", "protocol": "Mitotic index was determined as previously described (Jordan et al., […] 56:816-825 (1996)). Briefly, 15,000 RBL-FMB cells plated in 8 well Labtek chambers (Nalge Nunc, Naperville, Ill.) and exposed to paclitaxel (Sigma Aldrich, St Louis) for 20 hours. The cells were fixed and permeablized with −20° C. cold methanol for 5 minutes at −20° C. They were blocked with 10% fetal calf serum in PBS for 10 minutes at RT. Alpha Tubulin was detected with a mouse monoclonal antibody clone GTU-88 (Sigma Aldrich, St. Louis Mo.). DNA was stained with Hoescht 33342 (Molecular Probes, Eugene, Oreg.). Only cells that were clearly in metaphase or anaphase were counted as a percentage of the total. The cells were imaged with a Zeiss epifluorescence microscope (Carl Zeiss, Germany)."}, "Hela cells": {"system": "Hela cells", "details": "cited from earlier work"}}}
{"smiles": "CC(=O)O[C@H]1C(=O)[C@@]2(C)[C@H]([C@H](OC(=O)c3ccccc3)[C@]3(O)C[C@H](OC(=O)[C@H](O)[C@@H](NC(=O)c4ccccc4)c4ccccc4)C(C)=C1C3(C)C)[C@]1(OC(C)=O)CO[C@@H]1C[C@@H]2O", "note": "[TAXOL™, paclitaxel]", "values": [{"measurement": "Mitotic arrest", "setting": "RBL-FMB cells [1]; 10 nM", "result": "arrested for the duration of the experiment"}, {"measurement": "Anaphase-NER Ave.", "setting": "RBL-FMB cells [1]; [Taxol] 0.01", "result": 8.4, "unit": "min"}, {"measurement": "Anaphase-NER Med.", "setting": "RBL-FMB cells [1]; [Taxol] 0.01", "result": 8, "unit": "min"}, {"measurement": "NEB-NER Med.", "setting": "RBL-FMB cells [1]; [Taxol] 0.01", "result": 34, "unit": "min"}, {"measurement": "NEB-anaphase Ave.", "setting": "RBL-FMB cells [1]; [Taxol] 0.01", "result": 28.4, "unit": "min"}, {"measurement": "NEB-anaphase Med.", "setting": "RBL-FMB cells [1]; [Taxol] 0.01", "result": 26, "unit": "min"}, {"measurement": "NEB-NER Ave.", "setting": "RBL-FMB cells [1]; [Taxol] 0.01 (10 pM in text)", "result": 35.6, "unit": "min"}, {"measurement": "Anaphase-NER Ave.", "setting": "RBL-FMB cells [1]; [Taxol] 0.1", "result": 8.8, "unit": "min"}, {"measurement": "Anaphase-NER Med.", "setting": "RBL-FMB cells [1]; [Taxol] 0.1", "result": 8, "unit": "min"}, {"measurement": "NEB-NER Ave.", "setting": "RBL-FMB cells [1]; [Taxol] 0.1", "result": 38.1, "unit": "min"}, {"measurement": "NEB-NER Med.", "setting": "RBL-FMB cells [1]; [Taxol] 0.1", "result": 36, "unit": "min"}, {"measurement": "NEB-anaphase Ave.", "setting": "RBL-FMB cells [1]; [Taxol] 0.1", "result": 29.6, "unit": "min"}, {"measurement": "NEB-anaphase Med.", "setting": "RBL-FMB cells [1]; [Taxol] 0.1", "result": 26, "unit": "min"}, {"measurement": "Anaphase-NER Ave.", "setting": "RBL-FMB cells [1]; [Taxol] 1", "result": 10.3, "unit": "min"}, {"measurement": "Anaphase-NER Med.", "setting": "RBL-FMB cells [1]; [Taxol] 1", "result": 10, "unit": "min"}, {"measurement": "NEB-NER Ave.", "setting": "RBL-FMB cells [1]; [Taxol] 1", "result": 40.0, "unit": "min"}, {"measurement": "NEB-NER Med.", "setting": "RBL-FMB cells [1]; [Taxol] 1", "result": 38, "unit": "min"}, {"measurement": "NEB-anaphase Ave.", "setting": "RBL-FMB cells [1]; [Taxol] 1", "result": 29.8, "unit": "min"}, {"measurement": "NEB-anaphase Med.", "setting": "RBL-FMB cells [1]; [Taxol] 1", "result": 28, "unit": "min"}, {"measurement": "Anaphase-NER Ave.", "setting": "RBL-FMB cells [1]; [Taxol] 3", "result": 10.3, "unit": "min"}, {"measurement": "Anaphase-NER Med.", "setting": "RBL-FMB cells [1]; [Taxol] 3", "result": 8, "unit": "min"}, {"measurement": "NEB-NER Ave.", "setting": "RBL-FMB cells [1]; [Taxol] 3", "result": 62.8, "unit": "min"}, {"measurement": "NEB-NER Med.", "setting": "RBL-FMB cells [1]; [Taxol] 3", "result": 50, "unit": "min"}, {"measurement": "NEB-anaphase Ave.", "setting": "RBL-FMB cells [1]; [Taxol] 3", "result": 44.6, "unit": "min"}, {"measurement": "NEB-anaphase Med.", "setting": "RBL-FMB cells [1]; [Taxol] 3", "result": 34, "unit": "min"}, {"measurement": "Anaphase-NER Ave.", "setting": "RBL-FMB cells [1]; [Taxol] 4", "result": 9.8, "unit": "min"}, {"measurement": "Anaphase-NER Med.", "setting": "RBL-FMB cells [1]; [Taxol] 4", "result": 10, "unit": "min"}, {"measurement": "NEB-NER Ave.", "setting": "RBL-FMB cells [1]; [Taxol] 4", "result": 89.7, "unit": "min"}, {"measurement": "NEB-NER Med.", "setting": "RBL-FMB cells [1]; [Taxol] 4", "result": 70, "unit": "min"}, {"measurement": "NEB-anaphase Ave.", "setting": "RBL-FMB cells [1]; [Taxol] 4", "result": 77.7, "unit": "min"}, {"measurement": "NEB-anaphase Med.", "setting": "RBL-FMB cells [1]; [Taxol] 4", "result": 60, "unit": "min"}, {"measurement": "Anaphase-NER Ave.", "setting": "RBL-FMB cells [1]; [Taxol] 5", "result": 11.3, "unit": "min"}, {"measurement": "Anaphase-NER Med.", "setting": "RBL-FMB cells [1]; [Taxol] 5", "result": 12, "unit": "min"}, {"measurement": "NEB-NER Ave.", "setting": "RBL-FMB cells [1]; [Taxol] 5", "result": 112.2, "unit": "min"}, {"measurement": "NEB-NER Med.", "setting": "RBL-FMB cells [1]; [Taxol] 5", "result": 102, "unit": "min"}, {"measurement": "NEB-anaphase Ave.", "setting": "RBL-FMB cells [1]; [Taxol] 5", "result": 107.4, "unit": "min"}, {"measurement": "NEB-anaphase Med.", "setting": "RBL-FMB cells [1]; [Taxol] 5", "result": 114, "unit": "min"}, {"measurement": "Anaphase-NER Ave.", "setting": "RBL-FMB cells [1]; [Taxol] 6", "result": 13.3, "unit": "min"}, {"measurement": "Anaphase-NER Med.", "setting": "RBL-FMB cells [1]; [Taxol] 6", "result": 11, "unit": "min"}, {"measurement": "NEB-NER Ave.", "setting": "RBL-FMB cells [1]; [Taxol] 6", "result": 194.5, "unit": "min"}, {"measurement": "NEB-NER Med.", "setting": "RBL-FMB cells [1]; [Taxol] 6", "result": 186, "unit": "min"}, {"measurement": "NEB-anaphase Ave.", "setting": "RBL-FMB cells [1]; [Taxol] 6", "result": 183.3, "unit": "min"}, {"measurement": "NEB-anaphase Med.", "setting": "RBL-FMB cells [1]; [Taxol] 6", "result": 175, "unit": "min"}, {"measurement": "Anaphase-NER Ave.", "setting": "RBL-FMB cells [1]; [Taxol] 7.5", "result": 12.3, "unit": "min"}, {"measurement": "Anaphase-NER Med.", "setting": "RBL-FMB cells [1]; [Taxol] 7.5", "result": 12, "unit": "min"}, {"measurement": "NEB-NER Ave.", "setting": "RBL-FMB cells [1]; [Taxol] 7.5", "result": 202.1, "unit": "min"}, {"measurement": "NEB-NER Med.", "setting": "RBL-FMB cells [1]; [Taxol] 7.5", "result": 195, "unit": "min"}, {"measurement": "NEB-anaphase Ave.", "setting": "RBL-FMB cells [1]; [Taxol] 7.5", "result": 171.1, "unit": "min"}, {"measurement": "NEB-anaphase Med.", "setting": "RBL-FMB cells [1]; [Taxol] 7.5", "result": 166, "unit": "min"}, {"measurement": "Anaphase-NER Ave.", "setting": "RBL-FMB cells [1]; [Taxol] 8", "result": 12.1, "unit": "min"}, {"measurement": "Anaphase-NER Med.", "setting": "RBL-FMB cells [1]; [Taxol] 8", "result": 12, "unit": "min"}, {"measurement": "NEB-NER Ave.", "setting": "RBL-FMB cells [1]; [Taxol] 8", "result": 192.7, "unit": "min"}, {"measurement": "NEB-NER Med.", "setting": "RBL-FMB cells [1]; [Taxol] 8", "result": 189, "unit": "min"}, {"measurement": "NEB-anaphase Ave.", "setting": "RBL-FMB cells [1]; [Taxol] 8", "result": 180.3, "unit": "min"}, {"measurement": "NEB-anaphase Med.", "setting": "RBL-FMB cells [1]; [Taxol] 8", "result": 178, "unit": "min"}, {"measurement": "anaphase to NER phase (post-checkpoint)", "setting": "RBL-FMB cells [1]; increasing TAXOL", "result": "smaller and ungraded effects"}, {"measurement": "timing between NEB and anaphase (pre-checkpoint mitosis phase)", "setting": "RBL-FMB cells [1]; increasing TAXOL", "result": "significantly prolonged"}, {"measurement": "percentage of mitotic cells (mitotic index)", "setting": "RBL-FMB cells [2]; higher taxol concentrations", "result": "increased"}, {"measurement": "effects on mitotic index", "setting": "RBL-FMB cells [2]; low TAXOL concentrations", "result": "went unseen"}, {"measurement": "microtubule stabilization effect, concentration range", "setting": "Hela cells", "result": "nM concentration range"}]}
